Assay results reported in patent US10925967B2, “Degradation of Bruton's tyrosine kinase (BTK) by conjugation of BTK inhibitors with E3 ligase ligand and methods of use” (Dana-Farber Cancer Institute, Inc., priority 2016, dated 2021).

Experiments:
[1] = target: T1, BTK (Homo sapiens, UniProt Q06187); experiment: K562 cell assay and Western blotting of BTK levels; format: cell-based; design: endogenous in cells; host or cells: K562 cells; conditions: K562 cells, 200 nM, 1 μM, or 5 μM, 12 hours
Procedure: K562 cells were treated with DMSO or with 200 nM, 1 μM, or 5 μM of a BTK bifunctional inhibitor compound of the disclosure for 12 hours, followed by protein lysate harvest and Western blotting analysis.
(§1) Cells are lysed using RIPA buffer supplemented with protease inhibitor cocktail (Roche) and phosSTOP phosphatase inhibitor cocktail (Roche) on ice for 15 minutes. The lysates are spun at 20,000×g for 15 minutes on 4° C. and protein concentration is determined using BCA assay (Pierce). The following primary antibodies are used in this study: BTK, GADPH, tubulin and Aurora A kinase (all from Cell Signaling Technology). Blots are imaged using fluorescence-labeled secondary antibodies (LI-COR) on the OdysseyCLxImager (LI-COR). Quantification of band intensities is performed using OdysseyCLx software (LI-COR).

[2] = target: T1, BTK; experiment: MOLM14 cell assay and Western blotting of BTK, Aurora A and tubulin levels; format: cell-based; design: endogenous in cells; conditions: MOLM14 cells, 40 nM, 200 nM, 1 μM, 4 hours
Procedure: MOLM14 cells were treated with DMSO or with 40 nM, 200 nM, 1 μM of a BTK bifunctional inhibitor compound of the disclosure for 4 hours, followed by protein lysate harvest and Western blotting analysis of BTK, Aurora A, and ca-tubulin levels. […] (FIG. 2)
as §1

T1 sequence (Q06187 whole entry): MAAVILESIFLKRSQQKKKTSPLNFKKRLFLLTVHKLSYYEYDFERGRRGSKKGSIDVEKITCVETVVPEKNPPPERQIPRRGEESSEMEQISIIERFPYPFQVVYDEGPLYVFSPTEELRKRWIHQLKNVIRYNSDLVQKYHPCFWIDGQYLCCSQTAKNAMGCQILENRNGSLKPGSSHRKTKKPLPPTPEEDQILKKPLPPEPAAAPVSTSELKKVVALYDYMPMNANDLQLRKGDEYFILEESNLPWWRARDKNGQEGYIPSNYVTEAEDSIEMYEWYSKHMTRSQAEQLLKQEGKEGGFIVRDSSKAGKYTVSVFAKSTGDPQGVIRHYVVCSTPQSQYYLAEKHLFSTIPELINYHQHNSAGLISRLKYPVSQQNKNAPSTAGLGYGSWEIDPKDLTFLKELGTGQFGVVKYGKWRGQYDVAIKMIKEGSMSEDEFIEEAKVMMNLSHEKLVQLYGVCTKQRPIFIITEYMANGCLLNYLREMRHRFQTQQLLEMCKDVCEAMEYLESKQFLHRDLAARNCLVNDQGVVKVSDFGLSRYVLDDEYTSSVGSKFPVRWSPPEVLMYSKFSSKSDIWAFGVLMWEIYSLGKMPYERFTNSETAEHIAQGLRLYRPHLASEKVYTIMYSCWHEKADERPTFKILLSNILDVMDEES

Row | SMILES | BTK degradation (Western blot) [1] | BTK degradation (Western blot) [2]
1 | COc1cc(Nc2c(C#N)cnc3cc(OCCCN4CCN(CCOCCOCCOCCNc5cccc6c5C(=O)N(C5CCC(=O)NC5=O)C6=O)CC4)c(OC)cc23)c(Cl)cc1Cl (stereo not drawn) [Compound I-2] | showed BTK degradation | –
2 | COc1cc(Nc2c(C#N)cnc3cc(OCCCN4CCN(CCOCCOCCNc5cccc6c5C(=O)N(C5CCC(=O)NC5=O)C6=O)CC4)c(OC)cc23)c(Cl)cc1Cl (stereo not drawn) [Compound I-3] | – | showed BTK degradation
3 | COc1cc(Nc2c(C#N)cnc3cc(OCCCN4CCN(C(=O)CCCNC(=O)COc5cccc6c5C(=O)N(C5CCC(=O)NC5=O)C6=O)CC4)c(OC)cc23)c(Cl)cc1Cl (stereo not drawn) [Compound I-5] | showed BTK degradation | –
